Results published in publication PMC11494653, “Teixobactin “Swapmers” with L Tail Stereochemistry Retain Antibiotic Activity” (The Journal of Organic Chemistry, 2024).
In brackets after ≈: the same amount, converted by molar mass. Positions of bridges follow the written chain, without caps; N, C: chain ends. Non-standard residues stand in square brackets, D forms with d. Residues, ends and D or L forms follow the SMILES beside them. Chains are numbered I, II in the order given. NMeF = CN[C@@H](Cc1ccccc1)C(=O)O; Nphe = O=C(O)CNCc1ccccc1

Tests used:
Type in all cases: cell-based
[1] = test system: Staphylococcus epidermidis ATCC 14990; assay: microbe, parasite or virus in culture; settings: ATCC 14990, 16 h
Description: (§1) We determined the MIC values of these teixobactin swapmer prodrugs against the Gram-positive bacteria Bacillus subtilis, Staphylococcus epidermidis, methicillin-susceptible Staphylococcus aureus (MSSA), and methicillin-resistant Staphylococcus aureus (MRSA) in a broth microdilution assay as described previously.[9],[10] We used the antibiotic vancomycin as a positive control and the Gram-negative bacterium Escherichia coli as a negative control. The MIC values for Lys10-teixobactin 1, Lys10-teixobactin prodrug 2, Arg10-teixobactin 6, and Arg10-teixobactin prodrug 7 are shown in Table 1 for comparison with the swapmer analogues.
(§2) We performed minimum inhibitory concentration (MIC) assays as previously described.[9] A concise procedure is detailed below.
(§3) Stock solutions of teixobactin analogues were prepared gravimetrically by dissolving an appropriate amount of peptide in 20 mg/mL sterile DMSO. The stock solutions were stored at −20 °C for subsequent experiments.
(§4) Bacillus subtilis (ATCC 6051), Staphylococcus epidermidis (ATCC 14990), methicillin-susceptible Staphylococcus aureus (MSSA) (ATCC 29213), and Escherichia coli (ATCC 10798) were cultured from glycerol stocks in Mueller-Hinton broth containing 0.002% polysorbate 80 overnight in a shaking incubator at 37 °C. Methicillin-resistant Staphylococcus aureus (MRSA) (ATCC 700698) was cultured from a glycerol stock in brain hearth infusion broth containing 0.002% polysorbate 80 overnight in a shaking incubator at 37 °C. After overnight incubation, each culture was diluted with the appropriate media (containing 0.002% polysorbate 80) to 1 × 10^6 colony-forming units (CFU)/mL as previously described.[12],[15],[16] Briefly, we have previously determined the CFU/mL for each bacterium at OD600 = 0.075 for 200 μL of bacterial culture in a 96-well plate. The OD600 of each overnight culture was determined, and then each culture was diluted to OD600 = 0.075. Cultures were further diluted to achieve 1 × 10^6 CFU/mL solutions.
(§5) Aliquots of the 20 mg/mL peptide stock solutions were diluted to make a 64 μg/mL solution in Mueller-Hinton broth containing 0.002% polysorbate 80 and a 64 μg/mL solution in brain heart infusion broth containing 0.002% polysorbate 80. The solutions were mixed by pipetting to ensure homogeneity. A 200-μL aliquot of a 64 μg/mL solution was transferred to a 96-well plate. 2-fold serial dilutions were made with media containing 0.002% polysorbate 80 across the 96-well plate to achieve a final volume of 100 μL in each well (initial concentrations ranging from 64 to 0.0625 μg/mL). A 100-μL aliquot of a 1 × 10^6 CFU/mL bacterial solution was added to each well in the series, resulting in final bacterial concentrations of 5 × 10^5 CFU/mL in each well. As 100 μL of bacteria were added to each well, the concentration of peptide was also diluted 2-fold (final concentrations ranging from 32 μg/mL to 0.03125 μg/mL). Each plate was covered with a lid and incubated at 37 °C for 16 h. The optical density measurements were measured at 600 nm using a 96-well UV–vis plate reader (MultiSkan GO, Thermo Scientific). The MIC values were taken as the lowest concentration that had no bacterial growth. MIC assays for each compound were performed in triplicate to ensure reproducibility.

[2] = test system: Staphylococcus aureus (MSSA) ATCC 29213; assay: microbe, parasite or virus in culture; settings: ATCC 29213, 16 h
Description: as §1, §2, §3, §4, §5

[3] = test system: Escherichia coli ATCC 10798; assay: microbe, parasite or virus in culture; settings: ATCC 10798, 16 h
Description: as §1, §2, §3, §4, §5

[4] = test system: Bacillus subtilis ATCC 6051; assay: microbe, parasite or virus in culture; settings: for MIC Bacillus subtilis ATCC 6051: ATCC 6051, 16 h
Description: as §1, §2, §3, §4, §5

[5] = test system: Staphylococcus aureus (MRSA) ATCC 700698; assay: microbe, parasite or virus in culture; settings: ATCC 700698, 16 h
Description: as §1, §2, §3, §4, §5

all bacteria tested = assay: MIC broth microdilution assay, summary over all bacteria
Description: as §1, §2, §3
as §4, with “After overnight incubation, each culture was diluted with the appropriate media (containing 0.002% polysorbate 80) to 1 × 10^6 colony-forming units (CFU)/mL as previously described.[12],[15],[16]” left out, “Cultures were further diluted to achieve 1 × 10^6 CFU/mL solutions.” left out
Aliquots of the 20 mg/mL peptide stock solutions were diluted to make a 64 μg/mL solution in Mueller-Hinton broth containing 0.002% polysorbate 80 and a 64 μg/mL solution in brain heart infusion broth containing 0.002% polysorbate 80. […] The optical density measurements were measured at 600 nm using a 96-well UV–vis plate reader (MultiSkan GO, Thermo Scientific). […]

[6] = concentration range tested up to 32 μg/mL

SMILES | MIC Staphylococcus epidermidis ATCC 14990 [1] [µg/mL] | MIC Staphylococcus aureus (MSSA) ATCC 29213 [2] [µg/mL] | MIC Escherichia coli ATCC 10798 [3] [µg/mL] | MIC Bacillus subtilis ATCC 6051 [4] [µg/mL] | antibiotic activity in words against B. subtilis [4, 6] | MIC Staphylococcus aureus (MRSA) ATCC 700698 [5] [µg/mL] | antibiotic activity in words against all other bacteria tested (all bacteria tested; all bacteria tested other than B. subtilis) | antibiotic activity in words against all bacteria tested (all bacteria tested; [6])
CC[C@H](C)[C@H](NC(=O)CNCc1ccccc1)C(=O)N[C@@H](CO)C(=O)N[C@H](C(=O)N[C@@H](CCC(N)=O)C(=O)N[C@H](C(=O)OC[C@H](N)C(=O)N[C@H]1C(=O)N[C@@H](C)C(=O)N[C@@H](CCCCN)C(=O)N[C@@H]([C@@H](C)CC)C(=O)O[C@H]1C)[C@@H](C)CC)[C@@H](C)CC [compound 5, N-Bn-Gly1,Ile4,Gln5,[Ile6-O-Ser7],Lys10-teixobactin] (I: H-[Nphe]ISIQI / II: H-S[dT]AKI; ester I:C-II:1, II:2-II:C) | >32 | >32 | >32 | 32 (≈ 26.6 µM) | only very weakly active | >32 | inactive | –
CC[C@H](C)[C@H](NC(=O)[C@H](CCC(N)=O)NC(=O)[C@H](Cc1ccccc1)NC)C(=O)N[C@@H](CO)C(=O)N[C@H](C(=O)N[C@@H](CCC(N)=O)C(=O)N[C@H](C(=O)OC[C@H](N)C(=O)N[C@H]1C(=O)N[C@@H](C)C(=O)N[C@@H](CCCNC(=N)N)C(=O)N[C@@H]([C@@H](C)CC)C(=O)O[C@H]1C)[C@@H](C)CC)[C@@H](C)CC [compound 9, N-Me-Phe0,Gln1,Ile4,Gln5,[Ile6-O-Ser7],Arg10-teixobactin] (I: H-[NMeF]QISIQI / II: H-S[dT]ARI; ester I:C-II:1, II:2-II:C) | >32 | >32 | >32 | >32 | – | >32 | – | completely inactive
